# Data taken from ChEMBL document CHEMBL1201862, “PubChem BioAssay data set” (2004).
#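 The compound was tested at five concentrations on cells cultured in 96-well plates, with a 48-hour exposure period. The concentration for 50% growth inhibition is given as GI50.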 Calls of active or inactive are those of the source. No stated cut-off is given here; in the data, active = GI50 up to about 1.1 µM and inactive = higher.
# Legend:
# Assay in all cases: growth of human tumour cells (NCI), 48 h
# [1] = tested on: LOX IMVI
# [2] = tested on: 786-0
# [3] = tested on: HOP-62
# [4] = tested on: SW-620
# [5] = tested on: OVCAR-8
# [6] = tested on: EKVX
# [7] = tested on: RXF 631
# [8] = tested on: Malme-3M
# [9] = tested on: U-251
# [10] = tested on: COLO 205
# [11] = tested on: SK-MEL-28
# [12] = tested on: RXF 393
# [13] = tested on: SF-295
# [14] = tested on: SK-OV-3
# [15] = tested on: XF498
# [16] = tested on: TK-10
# [17] = tested on: IGROV-1
# [18] = tested on: SF-539
# [19] = tested on: KM-20L2
# [20] = tested on: A549
# [21] = tested on: OVCAR-5
# [22] = tested on: HCT-15
# [23] = tested on: SNB-78
# [24] = tested on: DMS-114
# [25] = tested on: ACHN
# [26] = tested on: UACC-62
# [27] = tested on: M14
# [28] = tested on: DMS-273
# [29] = tested on: LXFL 529
# [30] = tested on: SN12C
# [31] = tested on: HT-29
# [32] = tested on: A498
# [33] = tested on: NCI-H460
# [34] = tested on: CAKI-1
# [35] = tested on: MOLT-4
# [36] = tested on: OVCAR-4
# [37] = tested on: CCRF-CEM
# [38] = tested on: HL-60
# [39] = tested on: HCT-116
# [40] = tested on: OVCAR-3
# [41] = tested on: SK-MEL-5
# [42] = tested on: NCI-H226
# [43] = tested on: NCI-H522
# [44] = tested on: KM12
# [45] = tested on: HCC 2998
# [46] = tested on: HOP-92
# [47] = tested on: UO-31
# [48] = tested on: DLD-1
# [49] = tested on: UACC-257
# [50] = tested on: SK-MEL-2
# [51] = tested on: SR
# [52] = tested on: SNB-75
# [53] = tested on: M19-MEL
# [54] = tested on: SF-268
# [55] = tested on: NCI-H23
# [56] = tested on: HOP-18
# [57] = tested on: SNB-19
# [58] = tested on: MDA-N
# [59] = tested on: BT-549
# [60] = tested on: MDA-MB-231
# [61] = tested on: K562
# [62] = tested on: RPMI-8226
# [63] = tested on: PC-3
# [64] = tested on: MDA-MB-435
# [65] = tested on: DU-145
# [66] = tested on: Hs-578T
# [67] = tested on: MCF7
# [68] = tested on: T47D
# [69] = tested on: NCI/ADR-RES
structure (smiles),measurement,setting,value
O=C1OCc2c1cc1ccc(O)c(OC3OC(CO)C(O)C(O)C3O)c1c2-c1ccc2c(c1)OCO2 (stereo not drawn),GI50,[1],86.7 µM (inactive)
same,GI50,[2],> 100 µM (inactive)
same,GI50,[3],> 100 µM (inactive)
same,GI50,[4],> 100 µM (inactive)
same,GI50,[5],94 µM (inactive)
same,GI50,[6],> 100 µM (inactive)
same,GI50,[7],> 100 µM (inactive)
same,GI50,[8],> 100 µM (inactive)
same,GI50,[9],> 100 µM (inactive)
same,GI50,[10],> 100 µM (inactive)
same,GI50,[11],67.8 µM (inactive)
same,GI50,[12],59.4 µM (inactive)
same,GI50,[13],> 100 µM (inactive)
same,GI50,[14],> 100 µM (inactive)
same,GI50,[15],62.7 µM (inactive)
same,GI50,[16],> 100 µM (inactive)
same,GI50,[17],> 100 µM (inactive)
same,GI50,[18],> 100 µM (inactive)
same,GI50,[19],> 100 µM (inactive)
same,GI50,[20],> 100 µM (inactive)
same,GI50,[21],> 100 µM (inactive)
same,GI50,[22],46.2 µM
same,GI50,[23],89.3 µM (inactive)
same,GI50,[24],47.5 µM (inactive)
same,GI50,[25],72.1 µM (inactive)
same,GI50,[26],76.9 µM (inactive)
same,GI50,[27],87.3 µM (inactive)
same,GI50,[28],94.6 µM (inactive)
same,GI50,[29],68.1 µM (inactive)
same,GI50,[30],89.3 µM (inactive)
same,GI50,[31],47.2 µM (inactive)
same,GI50,[32],> 100 µM (inactive)
same,GI50,[33],> 100 µM (inactive)
same,GI50,[34],87.3 µM (inactive)
N#CCC(=O)N/N=C1\C(=O)N(c2ccc(Cl)cc2)C(=O)C(=O)C1c1nc2ccccc2o1 (stereo not drawn),GI50,[35],> 100 µM (inactive)
same,GI50,[36],> 100 µM (inactive)
same,GI50,[37],> 100 µM (inactive)
same,GI50,[38],> 100 µM (inactive)
same,GI50,[2],> 100 µM (inactive)
same,GI50,[39],> 100 µM (inactive)
same,GI50,[40],> 100 µM (inactive)
same,GI50,[3],> 100 µM (inactive)
same,GI50,[4],> 100 µM (inactive)
same,GI50,[5],> 100 µM (inactive)
same,GI50,[6],> 100 µM (inactive)
same,GI50,[7],> 100 µM (inactive)
same,GI50,[8],> 100 µM (inactive)
same,GI50,[9],> 100 µM (inactive)
same,GI50,[10],> 100 µM (inactive)
same,GI50,[11],> 100 µM (inactive)
same,GI50,[41],> 100 µM (inactive)
same,GI50,[12],> 100 µM (inactive)
same,GI50,[13],> 100 µM (inactive)
same,GI50,[14],> 100 µM (inactive)
same,GI50,[16],> 100 µM (inactive)
same,GI50,[17],> 100 µM (inactive)
same,GI50,[42],> 100 µM (inactive)
same,GI50,[43],> 100 µM (inactive)
same,GI50,[44],> 100 µM (inactive)
same,GI50,[18],> 100 µM (inactive)
same,GI50,[19],> 100 µM (inactive)
same,GI50,[45],> 100 µM (inactive)
same,GI50,[46],91.8 µM (inactive)
same,GI50,[20],> 100 µM (inactive)
same,GI50,[47],> 100 µM (inactive)
same,GI50,[22],> 100 µM
same,GI50,[23],> 100 µM (inactive)
same,GI50,[24],> 100 µM (inactive)
same,GI50,[48],> 100 µM (inactive)
same,GI50,[49],> 100 µM (inactive)
same,GI50,[50],> 100 µM (inactive)
same,GI50,[51],> 100 µM (inactive)
same,GI50,[52],> 100 µM (inactive)
same,GI50,[25],> 100 µM (inactive)
same,GI50,[26],> 100 µM (inactive)
same,GI50,[27],> 100 µM (inactive)
same,GI50,[28],> 100 µM (inactive)
same,GI50,[53],> 100 µM (inactive)
same,GI50,[29],> 100 µM (inactive)
same,GI50,[54],> 100 µM (inactive)
same,GI50,[55],> 100 µM (inactive)
same,GI50,[30],> 100 µM (inactive)
same,GI50,[31],> 100 µM (inactive)
same,GI50,[32],> 100 µM (inactive)
same,GI50,[33],> 100 µM (inactive)
same,GI50,[56],> 100 µM (inactive)
same,GI50,[34],> 100 µM (inactive)
same,GI50,[57],> 100 µM (inactive)
O=C1C=C(Br)c2c(-c3ccccc3)oc3cccc1c23,GI50,[35],> 41.5 µM (inactive)
same,GI50,[58],18.4 µM (inactive)
same,GI50,[59],> 100 µM (inactive)
same,GI50,[36],7.5 µM (inactive)
same,GI50,[37],7.48 µM (inactive)
same,GI50,[1],> 49 µM (inactive)
same,GI50,[38],19.1 µM (inactive)
same,GI50,[2],51.8 µM (inactive)
same,GI50,[39],25.2 µM (inactive)
same,GI50,[40],> 57.1 µM (inactive)
same,GI50,[3],34.4 µM (inactive)
same,GI50,[4],> 100 µM (inactive)
same,GI50,[60],26.4 µM (inactive)
same,GI50,[5],58.2 µM (inactive)
same,GI50,[6],25.4 µM (inactive)
same,GI50,[61],> 50.9 µM (inactive)
same,GI50,[7],46.8 µM (inactive)
same,GI50,[8],72.3 µM (inactive)
same,GI50,[9],18.4 µM (inactive)
same,GI50,[62],> 39.3 µM (inactive)
same,GI50,[10],> 63.1 µM (inactive)
same,GI50,[11],> 93.5 µM (inactive)
same,GI50,[41],54.3 µM (inactive)
same,GI50,[63],> 100 µM (inactive)
same,GI50,[12],23.6 µM (inactive)
same,GI50,[13],22.9 µM (inactive)
same,GI50,[14],54.1 µM (inactive)
same,GI50,[16],38.1 µM (inactive)
same,GI50,[17],32.3 µM (inactive)
same,GI50,[42],> 80.9 µM (inactive)
same,GI50,[43],31.6 µM (inactive)
same,GI50,[44],> 53 µM (inactive)
same,GI50,[18],23.2 µM (inactive)
same,GI50,[19],> 100 µM (inactive)
same,GI50,[45],99.8 µM (inactive)
same,GI50,[46],25.4 µM (inactive)
same,GI50,[20],> 81.5 µM (inactive)
same,GI50,[47],> 61.2 µM (inactive)
same,GI50,[21],> 100 µM (inactive)
same,GI50,[22],> 45.7 µM
same,GI50,[23],35.6 µM (inactive)
same,GI50,[24],24.8 µM (inactive)
same,GI50,[48],> 100 µM (inactive)
same,GI50,[49],> 100 µM (inactive)
same,GI50,[50],71.8 µM (inactive)
same,GI50,[52],5.45 µM (inactive)
same,GI50,[25],49 µM (inactive)
same,GI50,[26],38.1 µM (inactive)
same,GI50,[27],54.5 µM (inactive)
same,GI50,[64],17.1 µM (inactive)
same,GI50,[28],> 42.9 µM (inactive)
same,GI50,[65],31.6 µM (inactive)
same,GI50,[53],> 60.1 µM (inactive)
same,GI50,[66],29.3 µM (inactive)
same,GI50,[29],> 65.2 µM (inactive)
same,GI50,[67],2.62 µM (inactive)
same,GI50,[54],20.2 µM (inactive)
same,GI50,[55],> 52.6 µM (inactive)
same,GI50,[30],> 88.1 µM (inactive)
same,GI50,[31],> 63.4 µM (inactive)
same,GI50,[68],6.21 µM (inactive)
same,GI50,[32],> 75.7 µM (inactive)
same,GI50,[33],37.8 µM (inactive)
same,GI50,[56],> 100 µM (inactive)
same,GI50,[34],> 76.9 µM (inactive)
same,GI50,[57],42.1 µM (inactive)
same,GI50,[69],48 µM (inactive)
COc1ccc(NC(=O)C(=O)NO)c(OC)c1,GI50,[35],11.9 µM (inactive)
same,GI50,[36],17.7 µM (inactive)
same,GI50,[37],23 µM (inactive)
same,GI50,[1],14.2 µM (inactive)
same,GI50,[38],17.1 µM (inactive)
same,GI50,[2],16 µM (inactive)
same,GI50,[39],18.5 µM (inactive)
same,GI50,[40],16.6 µM (inactive)
same,GI50,[3],19.9 µM (inactive)
same,GI50,[4],18.7 µM (inactive)
same,GI50,[5],15 µM (inactive)
same,GI50,[6],14.9 µM (inactive)
same,GI50,[61],19.8 µM (inactive)
same,GI50,[7],18.6 µM (inactive)
same,GI50,[8],23.8 µM (inactive)
same,GI50,[9],16.7 µM (inactive)
same,GI50,[62],15.1 µM (inactive)
same,GI50,[10],21 µM (inactive)
same,GI50,[11],17.5 µM (inactive)
same,GI50,[41],18.5 µM (inactive)
same,GI50,[12],15.6 µM (inactive)
same,GI50,[13],14 µM (inactive)
same,GI50,[14],19.5 µM (inactive)
same,GI50,[16],22.4 µM (inactive)
same,GI50,[17],15.4 µM (inactive)
same,GI50,[42],22.3 µM (inactive)
same,GI50,[43],5.92 µM (inactive)
same,GI50,[44],19.8 µM (inactive)
same,GI50,[18],20.9 µM (inactive)
same,GI50,[19],19.1 µM (inactive)
same,GI50,[45],21.4 µM (inactive)
same,GI50,[46],20.6 µM (inactive)
same,GI50,[20],19.6 µM (inactive)
same,GI50,[47],16.2 µM (inactive)
same,GI50,[21],19.5 µM (inactive)
same,GI50,[22],16.3 µM
same,GI50,[23],19.8 µM (inactive)
same,GI50,[24],15.5 µM (inactive)
same,GI50,[48],21.5 µM (inactive)
same,GI50,[49],22.2 µM (inactive)
same,GI50,[50],16.1 µM (inactive)
same,GI50,[51],0.239 µM (active)
same,GI50,[52],16.5 µM (inactive)
same,GI50,[25],15.9 µM (inactive)
same,GI50,[26],14.8 µM (inactive)
same,GI50,[27],16.3 µM (inactive)
same,GI50,[28],16.6 µM (inactive)
same,GI50,[53],21.9 µM (inactive)
same,GI50,[29],16.7 µM (inactive)
same,GI50,[54],16.9 µM (inactive)
same,GI50,[55],18.6 µM (inactive)
same,GI50,[30],20 µM (inactive)
same,GI50,[31],20.7 µM (inactive)
same,GI50,[32],21.5 µM (inactive)
same,GI50,[33],16 µM (inactive)
same,GI50,[56],17.3 µM (inactive)
same,GI50,[34],13.8 µM (inactive)
same,GI50,[57],14.9 µM (inactive)
